Values quoted from earlier work as cited in US7829698B2, “Nano-particles comprising cucurbituril derivatives, pharmaceutical composition containing the same, and process for the preparation thereof” (Postech Foundation, priority 2003, dated 2010).
Peptide text beside a SMILES is read from it.

Conditions: host cucurbituril

Row | SMILES | Kf (non-covalent coupling constant between cucurbituril and guest molecule) [M⁻¹]
1 | N#CCCN [H2N(CH2)2CN] | 440
2 | N[C@@H](Cc1ccccc1)C(=O)O [Phe] | 1400
3 | CC(C)[C@H](NC(=O)CN)C(=O)O [Gly-val] (H-Gly-Val-OH) | 1500
4 | CC(C)C[C@H](N)C(=O)NCC(=O)O [Leu-gly] (H-Leu-Gly-OH) | 370
5 | NCCC(=O)O [H2N(CH2)2COOH] | 2300
6 | CCCCCN [Me(CH2)4NH2] | 24000
7 | CCC(=O)O [CH3CH2COOH] | 590
8 | N[C@@H](Cc1ccccc1)C(=O)NCC(=O)O [Phe-gly] (H-Phe-Gly-OH) | 1100
9 | CC(C)[C@H](N)C(=O)O [L-Val] | 1400
10 | C[C@H](N)C(=O)O [L-Ala] | 1000
11 | NCCCCCCN [NH2(CH2)6NH2] | 2.7e+06
12 | NCCCCCO [H2N(CH2)5OH] | 690
